Experimental data taken from paper PMC2700083, “A covalent peptide inhibitor of RGS4 identified in a focused one-bead, one compound library screen” (BMC Pharmacology, 2009).
Changes are numbered by the printed parent chain. Read-outs that look alike come from different tables or passages of the source. Marks after values point to notes of the source that are not given here. Where a SMILES comes first, the peptide text is derived from it. Bridges are numbered along the chain shown (N, C = ends).

Columns and labels:
RGS8 = molecular target: T1, RGS8 (Homo sapiens, UniProt P57771); assay: FCPIA, Gαo binding to RGS8
T1 construct: RGS8 full length; made in house
T1 sequence (P57771 1-180): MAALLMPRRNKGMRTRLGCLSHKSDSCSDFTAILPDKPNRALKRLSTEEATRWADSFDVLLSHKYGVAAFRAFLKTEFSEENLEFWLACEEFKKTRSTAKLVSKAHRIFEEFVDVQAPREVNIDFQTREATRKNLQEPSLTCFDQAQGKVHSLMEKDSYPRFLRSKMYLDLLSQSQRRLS
Description: (§1) We recently described a bead-based screen in which 2.5 × 10^6 different peptide sequences were prepared as a OBOC library. Fluorescently labeled RGS4 was used to probe the library for peptides that bind RGS4 [5]. […] Since the majority of those hit peptides could bind tightly to the RGS without disrupting GAP activity, they were also tested in the flow cytometry protein interaction assay (FCPIA) (Figure 1), which measures the interaction between RGS4 and Gαo. In this method we used a Luminex flow cytometer to detect the binding of Alexa Fluor 532-labeled Gαo to biotinylated RGS4 on avidin beads in the presence of AMF (AlCl3, MgCl2, NaF and GDP) to put the Gα subunit into a transition state-like conformation. Peptides were tested at 50 μM except where limited by solubility (Table 1).
5nd inhibited Gαo binding to a number of different RGS proteins (Figure 2). […] RGS19 and RGS7 are in the RZ and R7 families, respectively and show less inhibition by 5nd. Linear as well as bridged versions of peptide 5 were tested in the FCPIA since cyclization yields would most likely have been less then 100% in the synthesis of the library leaving some linear peptides present on each bead. […] This may be due to lack of structural rigidity necessary for the correct interaction of the peptide with the RGS protein or a role for chemical reactivity of the disulfide.
Figure 2 Characterization of hit 5. A) and B) Dose response curves for 5nd in the FCPIA with different RGS proteins (RGS Family), (mean ± S.E.M., n = 3) *p < 0.05, **p < 0.01, ***p < 0.001 compared to RGS4 at the same 5nd concentration. C) Peptides were tested at 50 μM as in Figure 1, (mean ± S.E.M., n ≥ 3) *p < 0.05, **p < 0.01, ***p < 0.001 compared to no peptide.
Figure 3 Irreversibility experiments. RGS-biotin on avidin beads was treated with 5nd (100 μM) or 5nm (100 μM) and then washed in buffer (with or without 1 mM DTT) or not washed and put in the FCPIA using RGS4 (A) or RGS8 (B) (mean ± S.E.M., n ≥ 2) *p < 0.05, **p < 0.01, ***p < 0.001 compared to no peptide (100%); #p < 0.05, ##p < 0.01, ###p < 0.001 compared to 5nd no wash.
(§2) Proteins were expressed, purified and labeled as described previously. The mutagenesis was done using the "QuickChange Multi Site-Directed Mutagenesis Kit" from Stratagene according to the manufacturer's protocol. The construct of RGS4 used in these studies is a maltose binding protein (MBP-) fusion protein of the RGS4 sequence from which the amphipathic N-terminal helix has been removed (i.e. MBP-RGS4Δ51N). For simplicity in the text, this will be referred to as RGS4. All other RGS proteins were human sequences and were used as Mpb fusions: RGS7 RGS domain (aa: 305–453), RGS8 full length, RGS16 full length, and RGS19ΔC11 (amino acids 1–209). […]

RGS4 A95C, -7C = molecular target: T2, RGS4 A95C, -7C (Rattus norvegicus, UniProt P49799, C132A/C148A/C183A/C197A/C204A/C71A); assay: FCPIA, RGS4 A95C in the -7C; type: binding; details: read-out: 5nd logIC50 (converted)
T2 construct: made in house
Description: (§3) Figure 5 Dose curves of 5nd on various RGS4 cysteine mutants. Various concentrations of 5nd were tested for disruption of the RGS4-Gαo interaction for C95A (5 nM), or […], C71A (5nM) or C148A (5nM) (B), A95C in the -7C (5nM), or A132C in the -7C (5nM) (C), A71C in the -7C (5nM), or A148C in the -7C (5nM) (D) or the mutant with no cysteines in the domain (20 nM) or the C-terminus (20 nM) (E) in the FCPIA (mean ± S.E.M., n ≥ 3).
The previous experiments tested which cysteines are necessary for inhibition by 5nd. In an alternative approach, we added cysteines back to the -7C mutant to determine which might be sufficient for 5nd activity. […] Furthermore, Cys132 is involved in the actions but this is clearly not sufficient to explain them. Thus it is concluded that 5nd is at least partially non-selective in its cysteine modification.
as §2, with “RGS4.” for “RGS4. All other RGS proteins were human sequences and were used as Mpb fusions: RGS7 RGS domain (aa: 305–453), RGS8 full length, RGS16 full length, and RGS19ΔC11 (amino acids 1–209).”

RGS4 C132A = molecular target: T3, RGS4 C132A (Rattus norvegicus, UniProt P49799, C132A); assay: FCPIA, RGS4 cysteine mutant C132A; type: binding; details: read-out: 5nd logIC50 (converted)
T3 construct: made in house
T3 sequence (P49799 52-205 C132A limits assumed): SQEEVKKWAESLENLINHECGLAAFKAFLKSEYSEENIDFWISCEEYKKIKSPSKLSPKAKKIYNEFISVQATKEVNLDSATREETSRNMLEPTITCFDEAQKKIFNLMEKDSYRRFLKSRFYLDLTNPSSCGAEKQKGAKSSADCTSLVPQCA
Description: as §3
(§4) Proteins were expressed, purified and labeled as described previously. The mutagenesis was done using the "QuickChange Multi Site-Directed Mutagenesis Kit" from Stratagene according to the manufacturer's protocol. The construct of RGS4 used in these studies is a maltose binding protein (MBP-) fusion protein of the RGS4 sequence from which the amphipathic N-terminal helix has been removed (i.e. MBP-RGS4Δ51N). For simplicity in the text, this will be referred to as RGS4. All other RGS proteins were human sequences and were used as Mpb fusions: RGS7 RGS domain (aa: 305–453), RGS8 full length, RGS16 full length, and RGS19ΔC11 (amino acids 1–209). To cleave RGS4Δ51N from the MBP-His6 construct for MS analysis, MBP-His6-RGS4Δ51N was treated with 15% MBP-His6-TEV protease S219V [11] for 22 hours at 4°C and purified over a Ni-NTA column.
(§5) FCPIA was performed as previously published.

RGS4 C95A = molecular target: T4, RGS4 C95A (Rattus norvegicus, UniProt P49799, C95A); assay: FCPIA, RGS4 cysteine mutant C95A; type: binding; details: read-out: 5nd logIC50 (converted)
T4 construct: made in house
T4 sequence (P49799 52-205 C95A limits assumed): T3 sequence (P49799 52-205 C132A limits assumed) with C44A, A81C
Description: as §3, §4, §5

RGS4 = molecular target: T5, RGS4 (Rattus norvegicus, UniProt P49799); assay: FCPIA (flow cytometry protein interaction assay), RGS4-Gαo interaction, wild type RGS4 (MBP-RGS4Δ51N); type: binding; details: peptide 50 μM; 25 nM Gαo-Alexa Fluor-532, 5 nM RGS4-biotin
T5 construct: made in house
T5 sequence (P49799 52-205 limits assumed): T3 sequence (P49799 52-205 C132A limits assumed) with A81C
Description: as §1
Figure 1 Hit peptides in the FCPIA. Hit peptides from Roof, et al. 2008 were tested at 50 μM unless otherwise indicated for ability to disrupt the RGS4-Gαo interaction as described using 25 nM Gα o-Alexa Fluor-532 and 5 nM wild type RGS4-biotin (mean ± S.E.M., n ≥ 3) *p < 0.05, **p < 0.01, ***p < 0.001 compared to no peptide.
as §4, §5

T2 sequence (P49799 52-205 C71A/C132A/C148A/C183A/C197A/C204A): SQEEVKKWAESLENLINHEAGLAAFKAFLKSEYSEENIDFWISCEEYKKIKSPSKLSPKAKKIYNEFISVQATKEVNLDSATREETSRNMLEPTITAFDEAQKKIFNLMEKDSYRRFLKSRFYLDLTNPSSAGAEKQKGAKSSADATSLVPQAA

Compound `CC(C)C[C@@H]1NC(=O)CNC(=O)[C@H](CCCCN)NC(=O)[C@@H](NC(=O)[C@H](Cc2c[nH]c3ccccc23)NC(=O)[C@@H](N)Cc2ccc(O)cc2)CSSC[C@@H](C(=O)N[C@@H](CCCCN)C(N)=O)NC1=O` [Peptide 5nd, Tyr-Trp-c [Cys-Lys-Gly-Leu-Cys]-Lys-NH2, S-S] (H-YWCKGLCK-NH2; disulfide 3-7) has an inhibition at 100 µM (RGS8; beads washed in buffer with 1 mM DTT, read-out: percent inhibition, RGS8, DTT wash) of 10 ± 3%, an inhibition at 100 µM (RGS8; beads washed in buffer without DTT, read-out: percent inhibition, RGS8, wash) of 50 ± 3% and an inhibition at 100 µM (RGS8; no wash, read-out: percent inhibition, RGS8) of 64 ± 2%. The IC50 (RGS4 A95C, -7C) was 263 µM, the IC50 (RGS4 C132A) was 138 µM and the IC50 (RGS4 C95A) was 19.5 µM. The “% Inhibition of RGS4-Gαo” value (RGS4) was 80 ± 5*** %.
